Experimental data published in patent US20120101093A1, “SUBSTITUTED IMIDAZO[1,2-A]PYRIDINE DERIVATIVES, PHARMACEUTICAL COMPOSITIONS, AND METHODS OF USE AS BETA-SECRETASE INHIBITORS” (HIGH POINT PHARMACEUTICALS, LLC, priority 2009, published 2012).

biological target: T1, BACE-1 enzyme (Homo sapiens, UniProt P56817); experiment: BACE Fluorescence Resonance Energy Transfer (FRET) Assay; assay type: biochemical; conditions: pH 4-4.5, 30 min pre-incubation, about 1.5 hours reaction
T1 construct: purchased R & D Systems 931AS
T1 sequence (P56817 46-457 limits assumed): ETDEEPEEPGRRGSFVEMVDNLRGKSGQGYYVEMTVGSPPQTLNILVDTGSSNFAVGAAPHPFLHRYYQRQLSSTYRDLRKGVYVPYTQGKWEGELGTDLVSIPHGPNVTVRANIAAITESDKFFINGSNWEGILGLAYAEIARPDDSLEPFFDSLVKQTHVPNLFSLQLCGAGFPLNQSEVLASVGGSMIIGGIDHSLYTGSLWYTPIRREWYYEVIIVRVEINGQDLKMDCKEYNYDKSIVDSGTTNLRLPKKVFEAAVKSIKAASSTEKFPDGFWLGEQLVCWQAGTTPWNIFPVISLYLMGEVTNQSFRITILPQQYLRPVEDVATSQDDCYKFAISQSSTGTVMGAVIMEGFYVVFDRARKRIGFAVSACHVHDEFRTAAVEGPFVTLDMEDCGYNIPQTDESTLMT
How it was run: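 BACE-1 enzyme pre-incubated 30 min with compound in 7.5% DMSO in 50 mM sodium acetate pH 4-4.5, 0.01% CHAPS, 0.0125% Triton X-100, 0.006% EDTA. Rhodamine/quencher peptide substrate added; ~1.5 h at room temperature, fluorescence read at 540/585 nm. IC50 or percent inhibition at one concentration.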

In order of rising IC50:
1. O=C(Nc1nc2cc(-c3cc(F)cc(Cl)c3)ccc2[nH]1)c1cn2c(N3CCC(O)CC3)cccc2n1 [Example 158, 5-(4-Hydroxy-piperidin-1-yl)-imidazo[1,2-a]pyridine-2-carboxylic acid [5-(3-chloro-5-fluoro-phenyl)-1H-benzoimidazol-2-yl]-amide]  0.1 µM
2. COCCOc1cc(F)cn2cc(C(=O)Nc3nc4cc(-c5cc(F)cc(Cl)c5)ccc4[nH]3)nc12 [Example 140, 6-Fluoro-8-(2-methoxy-ethoxy)-imidazo[1,2-a]pyridine-2-carboxylic acid [5-(3-chloro-5-fluoro phenyl)-1H-benzoimidazol-2-yl]-amide]  0.25 µM
3. O=C(Nc1nc2cc(-c3cc(F)cc(Cl)c3)ccc2[nH]1)c1cn2c(N3CC[C@H](O)C3)cccc2n1 [Example 155, 5-((S)-3-Hydroxy-pyrrolidin-1-yl)-imidazo[1,2-a]pyridine-2-carboxylic acid [5-(3-chloro-5-fluoro-phenyl)-1H-benzoimidazol-2-yl]-amide]  0.25 µM
4. CO[C@@H]1CCN(c2cccc3nc(C(=O)Nc4nc5cc(-c6cc(F)cc(Cl)c6)ccc5[nH]4)cn23)C1 [Example 156, 5-((R)-3-Methoxy-pyrrolidin-1-yl)-imidazo[1,2-a]pyridine-2-carboxylic acid [5-(3-chloro-5-fluoro-phenyl)-1H-benzoimidazol-2-yl]-amide]  0.29 µM
5. CC(C)CNCc1cccc2nc(C(=O)Nc3nc4cc(-c5cccc(C(F)(F)F)c5)ccc4[nH]3)cn12 [Example 164, 5-(Isobutylamino-methyl)-imidazo[1,2-a]pyridine-2-carboxylic acid [5-(3-trifluoromethyl-phenyl)-1H-benzoimidazol-2-yl]-amide]  0.3 µM
6. COc1cccn2cc(C(=O)Nc3nc4cc(-c5cc(F)cc(Cl)c5)ccc4[nH]3)nc12 [Example 151, 8-Methoxy-imidazo[1,2-a]pyridine-2-carboxylic acid [5-(3-chloro-5-fluoro-phenyl)-1H-benzoimidazol-2-yl]-amide]  0.31 µM
7. Cc1cc(OCCN(C)C)c2nc(C(=O)Nc3nc4cc(-c5cc(F)cc(Cl)c5)ccc4[nH]3)cn2c1 [Example 146, 8-(2-Dimethylamino-ethoxy)-6-methyl-imidazo[1,2-a]pyridine-2-carboxylic acid [5-(3-chloro-5-fluoro-phenyl)-1H-benzoimidazol-2-yl]-amide]  0.32 µM
8. CO[C@H]1CCN(c2cccc3nc(C(=O)Nc4nc5cc(-c6cc(F)cc(Cl)c6)ccc5[nH]4)cn23)C1 [Example 157, 5-((S)-3-Methoxy-pyrrolidin-1-yl)-imidazo[1,2-a]pyridine-2-carboxylic acid [5-(3-chloro-5-fluoro-phenyl)-1H-benzoimidazol-2-yl]-amide]  0.32 µM
9. CN(C)CCOc1cc(Cl)cn2cc(C(=O)Nc3nc4cc(-c5cc(F)cc(Cl)c5)ccc4[nH]3)nc12 [Example 142, 6-Chloro-8-(2-dimethylamino-ethoxy)-imidazo[1,2-a]pyridine-2-carboxylic acid [5-(3-chloro-5-fluoro-phenyl)-1H-benzoimidazol-2-yl]-amide]  0.34 µM
10. CO[C@H]1CCN(c2cc(F)cn3cc(C(=O)Nc4nc5cc(-c6cc(F)cc(Cl)c6)ccc5[nH]4)nc23)C1 [Example 159, 6-Fluoro-8-((S)-3-methoxy-pyrrolidin-1-yl)-imidazo[1,2-a]pyridine-2-carboxylic acid [5-(3-chloro-5-fluoro-phenyl)-1H-benzoimidazol-2-yl]-amide]  0.34 µM
11. CN1CCN(CCOc2cc(F)cn3cc(C(=O)Nc4nc5cc(-c6cc(F)cc(Cl)c6)ccc5[nH]4)nc23)CC1 [Example 148, 6-Fluoro-8-[2-(4-methyl-piperazin-1-yl)-ethoxy]-imidazo[1,2-a]pyridin-2-carboxylic acid [5-(3-chloro-5-fluoro-phenyl)-1H-benzoimidazol-2-yl]-amide]  0.39 µM
12. O=C(Nc1nc2cc(-c3cc(F)cc(Cl)c3)ccc2[nH]1)c1cn2cc(F)cc(OCCN3CCCCC3)c2n1 [Example 147, 6-Fluoro-8-(2-piperidin-1-yl-ethoxy)-imidazo[1,2-a]pyridine-2-carboxylic acid [5-(3-chloro-5-fluoro-phenyl)-1H-benzoimidazol-2-yl]-amide]  0.41 µM
13. CC(C)(C)NCc1ccc2nc(C(=O)Nc3nc4cc(-c5cccc(C(F)(F)F)c5)ccc4[nH]3)cn2c1 [Example 178, 6-(Tert-Butylamino-methyl)-imidazo[1,2-a]pyridine-2-carboxylic acid [5-(3-trifluoromethyl-phenyl)-1H-benzoimidazol-2-yl]-amide]  0.43 µM
14. Cc1cc(OCCN2CCN(C)CC2)c2nc(C(=O)Nc3nc4cc(-c5cc(F)cc(Cl)c5)ccc4[nH]3)cn2c1 [Example 150, 6-Methyl-8-[2-(4-methyl-piperazin-1-yl)-ethoxy]-imidazo[1,2-a]pyridine-2-carboxylic acid [5-(3-chloro-5-fluoro-phenyl)-1H-benzoimidazol-2-yl]-amide]  0.46 µM
15. O=C(Nc1nc2cc(-c3cccc(C(F)(F)F)c3)ccc2[nH]1)c1cn2c(CN3CCCC3)cccc2n1 [Example 175, 5-Pyrrolidin-1-ylmethyl-imidazo[1,2-a]pyridine-2-carboxylic acid [5-(3-trifluoromethyl-phenyl)-1H-benzoimidazol-2-yl]-amide]  0.49 µM
16. O=C(Nc1nc2cc(-c3cccc(C(F)(F)F)c3)ccc2[nH]1)c1cn2cc(CNC3CCCC3)ccc2n1 [Example 180, 6-Cyclopentylaminomethyl-imidazo[1,2-a]pyridine-2-carboxylic acid [5-(3-trifluoromethyl-phenyl)-1H-benzoimidazol-2-yl]-amide]  0.51 µM
17. O=C(Nc1nc2cc(-c3cc(F)cc(Cl)c3)ccc2[nH]1)c1cn2cc(F)cc(OCCN3CCOCC3)c2n1 [Example 145, 6-Fluoro-8-(2-morpholin-4-yl-ethoxy)-imidazo[1,2-a]pyridine-2-carboxylic acid [5-(3-chloro-5-fluoro-phenyl)-1H-benzoimidazol-2-yl]-amide]  0.52 µM
18. Cc1cc(Cl)c2nc(C(=O)Nc3nc4cc(-c5cc(F)cc(Cl)c5)ccc4[nH]3)cn2c1 [Example 144, 8-Chloro-6-methyl-imidazo[1,2-a]pyridine-2-carboxylic acid [5-(3-chloro-5-fluoro-phenyl)-1H-benzoimidazol-2-yl]-amide]  0.55 µM
19. Cc1cc(OCCN2CCCCC2)c2nc(C(=O)Nc3nc4cc(-c5cc(F)cc(Cl)c5)ccc4[nH]3)cn2c1 [Example 149, 6-Methyl-8-(2-piperidin-1-yl-ethoxy)-imidazo[1,2-a]pyridine-2-carboxylic acid [5-(3-chloro-5-fluoro-phenyl)-1H-benzoimidazol-2-yl]-amide]  0.57 µM
20. O=C(Nc1nc2cc(-c3cccc(C(F)(F)F)c3)ccc2[nH]1)c1cn2c(CNCc3ccccc3)cccc2n1 [Example 173, 5-(Benzylamino-methyl)-imidazo[1,2-a]pyridine-2-carboxylic acid [5-(3-trifluoromethyl-phenyl)-1H-benzoimidazol-2-yl]-amide]  0.57 µM
21. CCN(CC)Cc1cccc2nc(C(=O)Nc3nc4cc(-c5cccc(C(F)(F)F)c5)ccc4[nH]3)cn12 [Example 168, 5-Diethylaminomethyl-imidazo[1,2-a]pyridine-2-carboxylic acid [5-(3-trifluoromethyl-phenyl)-1H-benzoimidazol-2-yl]-amide]  0.65 µM
22. CN(C)CCOc1cc(F)cn2cc(C(=O)Nc3nc4cc(-c5cc(F)cc(Cl)c5)ccc4[nH]3)nc12 [Example 141, 8-(2-Dimethylamino-ethoxy)-6-fluoro-imidazo[1,2-a]pyridine-2-carboxylic acid [5-(3-chloro-5-fluoro-phenyl)-1H-benzoimidazol-2-yl]-amide]  0.66 µM
23. CO[C@@H]1CCN(c2cc(F)cn3cc(C(=O)Nc4nc5cc(-c6cc(F)cc(Cl)c6)ccc5[nH]4)nc23)C1 [Example 160, 6-Fluoro-8-((R)-3-methoxy-pyrrolidin-1-yl)-imidazo[1,2-a]pyridine-2-carboxylic acid [5-(3-chloro-5-fluoro-phenyl)-1H-benzoimidazol-2-yl]-amide]  0.75 µM
24. O=C(Nc1nc2cc(-c3cccc(C(F)(F)F)c3)ccc2[nH]1)c1cn2c(CN3CCCCC3)cccc2n1 [Example 166, 5-Piperidin-1-ylmethyl-imidazo[1,2-a]pyridine-2-carboxylic acid [5-(3-trifluoromethyl-phenyl)-1H-benzoimidazol-2-yl]-amide]  0.79 µM
25. O=C(Nc1nc2cc(-c3cc(F)cc(Cl)c3)ccc2[nH]1)c1cn2cc(Cl)cc(Cl)c2n1 [Example 143, 6,8-Dichloro-imidazo[1,2-a]pyridine-2-carboxylic acid [5-(3-chloro-5-fluoro-phenyl)-1H-benzoimidazol-2-yl]-amide]  1.06 µM
26. O=C(Nc1nc2cc(-c3cc(F)cc(Cl)c3)ccc2[nH]1)c1cn2cc(F)cc(N3CCC(O)CC3)c2n1 [Example 154, 6-Fluoro-8-(4-hydroxy-piperidin-1-yl)-imidazo[1,2-a]pyridine-2-carboxylic acid [5-(3-chloro-5-fluoro-phenyl)-1H-benzoimidazol-2-yl]-amide]  1.33 µM
27. O=C(Nc1nc2cc(-c3cc(F)cc(Cl)c3)ccc2[nH]1)c1cn2cc(F)cc(N3CC[C@H](O)C3)c2n1 [Example 152, 6-Fluoro-8-((S)-3-hydroxy-pyrrolidin-1-yl)-imidazo[1,2-a]pyridine-2-carboxylic acid [5-(3-chloro-5-fluoro-phenyl)-1H-benzoimidazol-2-yl]-amide]  1.53 µM
28. O=C(Nc1nc2cc(-c3cc(F)cc(Cl)c3)ccc2[nH]1)c1cn2cc(F)cc(N3CC[C@@H](O)C3)c2n1 [Example 153, 6-Fluoro-8-((R)-3-hydroxy-pyrrolidin-1-yl)-imidazo[1,2-a]pyridine-2-carboxylic acid [5-(3-chloro-5-fluoro-phenyl)-1H-benzoimidazol-2-yl]-amide]  1.83 µM
